Measurements: patent US20240158412A1 (Faxian Therapeutics, LLC, priority 2021, published 2024)

What follows are molecules tested against USP7 (Homo sapiens, UniProt Q93009) (assay: biochemical).
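Note: fluorescence intensity readout of USP7 enzymatic activity, reaction incubated 90 min at room temperature.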
Description: Example A. Biochemical Assay of USP7 Inhibitor Potency (IC50)
Fluorescence intensity assay of USP7 activity in the presence USP7 inhibitors. Recombinant USP7 protein (catalogue number E-519) and the fluorescence substrate ubiquitin-rhodamine 110 (Rh110) (catalogue number U-555) were purchased from Boston Biochem (840 Memorial Drive, Cambridge, MA 02139). The reaction was carried out in buffer 20 mM HEPES, pH 7.3, 150 mM NaCl, 1 mM TCEP, 125 μg/mL BSA at room temperature in a black 384-well Microplate (Greiner, catalog number 781076).
Test compounds were dissolved in DMSO to make 50 mM stock solution. […] In wells of a black 384-well Microplate, 15 μl of 100 pM of USP7 enzyme was added to each well with pre-diluted compounds and incubated at room temperature for 30 minutes, followed by addition of 10 μl of ubiquitin-rhodamine 110 (Rh110) substrate to reach 160 nM final concentration. The reaction mixtures were incubated for additional 90 minutes at room temperature. The fluorescence signal of the digested substrate was measured on an EnVision microplate reader (PerkinElmer,), using excitation at 485 nm and emission at 535 nm. The IC50 values were calculated using XLfit software.

USP7, sequence (Q93009 whole entry): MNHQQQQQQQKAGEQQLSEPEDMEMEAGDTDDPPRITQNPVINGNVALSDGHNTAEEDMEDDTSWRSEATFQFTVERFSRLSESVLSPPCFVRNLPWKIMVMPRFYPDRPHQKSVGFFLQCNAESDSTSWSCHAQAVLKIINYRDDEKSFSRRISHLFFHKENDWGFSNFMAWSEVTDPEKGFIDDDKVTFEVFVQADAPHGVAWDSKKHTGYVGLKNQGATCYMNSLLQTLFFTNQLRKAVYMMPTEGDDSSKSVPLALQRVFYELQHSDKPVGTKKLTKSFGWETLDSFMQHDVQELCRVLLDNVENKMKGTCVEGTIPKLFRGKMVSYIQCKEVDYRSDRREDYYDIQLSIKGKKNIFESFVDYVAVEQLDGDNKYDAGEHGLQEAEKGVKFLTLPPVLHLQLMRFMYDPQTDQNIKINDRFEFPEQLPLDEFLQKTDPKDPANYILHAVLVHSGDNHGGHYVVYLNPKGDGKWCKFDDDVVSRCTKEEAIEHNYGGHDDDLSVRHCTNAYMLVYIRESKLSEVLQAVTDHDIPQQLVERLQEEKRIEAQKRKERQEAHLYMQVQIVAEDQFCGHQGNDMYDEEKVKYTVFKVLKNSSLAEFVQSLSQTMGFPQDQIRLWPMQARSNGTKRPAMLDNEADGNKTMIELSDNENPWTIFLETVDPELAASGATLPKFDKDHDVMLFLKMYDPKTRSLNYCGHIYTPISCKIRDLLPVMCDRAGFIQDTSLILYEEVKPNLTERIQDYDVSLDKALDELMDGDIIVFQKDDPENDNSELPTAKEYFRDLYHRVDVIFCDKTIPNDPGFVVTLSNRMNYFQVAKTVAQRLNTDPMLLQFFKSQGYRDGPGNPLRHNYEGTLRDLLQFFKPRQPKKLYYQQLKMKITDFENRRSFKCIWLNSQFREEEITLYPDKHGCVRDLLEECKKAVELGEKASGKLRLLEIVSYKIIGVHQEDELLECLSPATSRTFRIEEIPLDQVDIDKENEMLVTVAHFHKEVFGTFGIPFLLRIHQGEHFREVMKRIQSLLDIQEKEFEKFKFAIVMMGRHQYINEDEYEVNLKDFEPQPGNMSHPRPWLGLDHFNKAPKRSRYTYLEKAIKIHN

| IC50 | SMILES |
| --- | --- |
| 0.01 to 0.1 µM | O=c1cc(NC2CCC2)cnn1Cc1cc2nccc(-c3cc(Cl)cc4c3N(C3CNC3)CCC4)c2s1 [Example 35, 2-[[7-[1-(azetidin-3-yl)-6-chloro-3,4-dihydro-2H-quinolin-8-yl]thieno[3,2-b]pyridin-2-yl]methyl]-5-(cyclobutylamino)pyridazin-3-one] |
| 0.01 to 0.1 µM | O=c1cc(Oc2ccc(F)cc2)cnn1Cc1cc2nccc(-c3cc(Cl)cc4c3N(C3CNC3)CCC4)c2s1 [Example 36, 2-((7-(1-(azetidin-3-yl)-6-chloro-1,2,3,4-tetrahydroquinolin-8-yl)thieno[3,2-b]pyridin-2-yl)methyl)-5-(4-fluorophenoxy)pyridazin-3(2H)-one] |
| > 1 µM | Oc1ccnn1Cc1cc2nccc(-c3cc(Cl)cc4c3N(C3CNC3)CCC4)c2s1 [Example 37, 2-[[7-[1-(azetidin-3-yl)-6-chloro-3,4-dihydro-2H-quinolin-8-yl]thieno[3,2-b]pyridin-2-yl]methyl]pyrazol-3-ol] |
| > 1 µM | O=C(c1cc2nccc(-c3cc(Cl)cc4c3N(C3CNC3)CCC4)c2s1)N1CCC1 [Example 38, Azetidin-1-yl-[7-[1-(azetidin-3-yl)-6-chloro-3,4-dihydro-2H-quinolin-8-yl]thieno[3,2-b]pyridin-2-yl]methanone] |
| 0.01 to 0.1 µM | O=C1CCC(=O)N1Cc1cc2nccc(-c3cc(C(F)(F)F)cc4c3N(C3CNC3)CCC4)c2s1 [Example 39] |
| > 1 µM | O=C1CCC(=O)N1Cc1cc2nccc(-c3cc(Cl)cc4c3N([C@H]3C[C@@H](O)C3)CCC4)c2s1 [Example 41, Cis-1-[[7-[6-chloro-1-(3-hydroxycyclobutyl)-3,4-dihydro-2H-quinolin-8-yl]thieno[3,2-b]pyridin-2-yl]methyl]pyrrolidine-2,5-dione] |
| 0.01 to 0.1 µM | O=C1CCC(=O)N1Cc1cc2nccc(-c3cc(Cl)cc4c3N(C3CCNCC3)CCC4)c2s1 [Example 45, 1-((7-(6-chloro-1-(piperidin-4-yl)-1,2,3,4-tetrahydroquinolin-8-yl)thieno[3,2-b]pyridin-2-yl)methyl)pyrrolidine-2,5-dione] |
| 0.01 to 0.1 µM | CN1CCC(N2CCCc3cc(Cl)cc(-c4ccnc5cc(CN6C(=O)CCC6=O)sc45)c32)CC1 [Example 46, 1-[[7-[6-chloro-1-(1-methyl-4-piperidyl)-3,4-dihydro-2H-quinolin-8-yl]thieno[3,2-b]pyridin-2-yl]methyl]pyrrolidine-2,5-dione] |
| 0.01 to 0.1 µM | O=C1CCC(=O)N1Cc1cc2nccc(-c3cc(Cl)cc4c3N(C3CNC3)CCC43CC3)c2s1 [Example 48, 1-((7-(1′-(azetidin-3-yl)-6′-chloro-2′,3′-dihydro-1′H-spiro[cyclopropane-1,4′-quinolin]-8′-yl)thieno[3,2-b]pyridin-2-yl)methyl)pyrrolidine-2,5-dione] |
| 0.101 to 1 µM | O=C1CCC(=O)N1Cc1cc2nccc(-c3cc(Cl)cc4c3N(CC3CCNCC3)CCC4)c2s1 [Example 49, 1-[[7-[6-chloro-1-(4-piperidylmethyl)-3,4-dihydro-2H-quinolin-8-yl]thieno[3,2-b]pyridin-2-yl]methyl]pyrrolidine-2,5-dione] |
| 0.01 to 0.1 µM | CN1CCC(CN2CCCc3cc(Cl)cc(-c4ccnc5cc(CN6C(=O)CCC6=O)sc45)c32)CC1 [Example 50, 1-[[7-[6-chloro-1-[(1-methyl-4-piperidyl)methyl]-3,4-dihydro-2H-quinolin-8-yl]thieno[3,2-b]pyridin-2-yl]methyl]pyrrolidine-2,5-dione] |
| 0.01 to 0.1 µM | O=C1CCC(=O)N1Cc1cc2nccc(-c3cc(Cl)cc4c3N(C3CNC3)C(=O)CO4)c2s1 [Example 53, 1-[[7-[4-(azetidin-3-yl)-7-chloro-3-oxo-1,4-benzoxazin-5-yl]thieno[3,2-b]pyridin-2-yl]methyl]pyrrolidine-2,5-dione] |
| 0.01 to 0.1 µM | O=C1CCC(=O)N1Cc1cc2nccc(-c3cc(Cl)cc4c3N(C3CNC3)CCO4)c2s1 [Example 54, 1-[[7-[4-(azetidin-3-yl)-7-chloro-2,3-dihydro-1,4-benzoxazin-5-yl]thieno[3,2-b]pyridin-2-yl]methyl]pyrrolidine-2,5-dione] |
| < 0.01 µM | O=c1ccn(CC(F)(F)F)c(=O)n1Cc1cc2nccc(-c3cc(Cl)cc4c3N([C@H]3CCNC3)CCC4)c2s1 [Example 55, (S)-3-((7-(6-chloro-1-(pyrrolidin-3-yl)-1,2,3,4-tetrahydroquinolin-8-yl)thieno[3,2-b]pyridin-2-yl)methyl)-1-(2,2,2-trifluoroethyl)pyrimidine-2,4(1H,3H)-dione] |
| < 0.01 µM | O=c1ccn(CC(F)(F)F)c(=O)n1Cc1cc2nccc(-c3cc(Cl)cc4c3N([C@@H]3CCNC3)CCC4)c2s1 [Example 56, (R)-3-((7-(6-chloro-1-(pyrrolidin-3-yl)-1,2,3,4-tetrahydroquinolin-8-yl)thieno[3,2-b]pyridin-2-yl)methyl)-1-(2,2,2-trifluoroethyl)pyrimidine-2,4(1H,3H)-dione] |
| < 0.01 µM | O=C1CCC(=O)N1Cc1cc2nccc(-c3cc(Cl)cc4c3N([C@H]3CCNC3)CCC4)c2s1 [Example 57, (S)-1-((7-(6-chloro-1-(pyrrolidin-3-yl)-1,2,3,4-tetrahydroquinolin-8-yl)thieno[3,2-b]pyridin-2-yl)methyl)pyrrolidine-2,5-dione] |
| 0.01 to 0.1 µM | O=C1CCC(=O)N1Cc1cc2nccc(-c3cc(Cl)cc4c3N([C@@H]3CCNC3)CCC4)c2s1 [Example 58, (R)-1-((7-(6-chloro-1-(pyrrolidin-3-yl)-1,2,3,4-tetrahydroquinolin-8-yl)thieno[3,2-b]pyridin-2-yl)methyl)pyrrolidine-2,5-dione] |
| < 0.01 µM | CN1CC[C@H](N2CCCc3cc(Cl)cc(-c4ccnc5cc(CN6C(=O)CCC6=O)sc45)c32)C1 [Example 59, (S)-1-((7-(6-chloro-1-(1-methylpyrrolidin-3-yl)-1,2,3,4-tetrahydroquinolin-8-yl)thieno[3,2-b]pyridin-2-yl)methyl)pyrrolidine-2,5-dione] |
| < 0.01 µM | CN1CC[C@@H](N2CCCc3cc(Cl)cc(-c4ccnc5cc(CN6C(=O)CCC6=O)sc45)c32)C1 [Example 60, (R)-1-((7-(6-chloro-1-(1-methylpyrrolidin-3-yl)-1,2,3,4-tetrahydroquinolin-8-yl)thieno[3,2-b]pyridin-2-yl)methyl)pyrrolidine-2,5-dione] |
| < 0.01 µM | O=c1ccn(CCOC(F)F)c(=O)n1Cc1cc2nccc(-c3cc(Cl)cc4c3N([C@H]3CCNC3)CCC4)c2s1 [Example 61, (S)-3-((7-(6-chloro-1-(pyrrolidin-3-yl)-1,2,3,4-tetrahydroquinolin-8-yl)thieno[3,2-b]pyridin-2-yl)methyl)-1-(2-(difluoromethoxy)ethyl)pyrimidine-2,4(1H,3H)-dione] |
| < 0.01 µM | O=c1ccn(CC2CC2)c(=O)n1Cc1cc2nccc(-c3cc(Cl)cc4c3N([C@H]3CCNC3)CCC4)c2s1 [Example 62, (S)-3-((7-(6-chloro-1-(pyrrolidin-3-yl)-1,2,3,4-tetrahydroquinolin-8-yl)thieno[3,2-b]pyridin-2-yl)methyl)-1-(cyclopropylmethyl)pyrimidine-2,4(1H,3H)-dione] |
| < 0.01 µM | Cn1ccc(=O)n(Cc2cc3nccc(-c4cc(Cl)cc5c4N([C@H]4CCNC4)CCC5)c3s2)c1=O [Example 63, (S)-3-((7-(6-chloro-1-(pyrrolidin-3-yl)-1,2,3,4-tetrahydroquinolin-8-yl)thieno[3,2-b]pyridin-2-yl)methyl)-1-methylpyrimidine-2,4(1H,3H)-dione] |
| < 0.01 µM | O=c1ccn(C[C@H](O)C(F)(F)F)c(=O)n1Cc1cc2nccc(-c3cc(Cl)cc4c3N([C@H]3CCNC3)CCC4)c2s1 [Example 64] |
| < 0.01 µM | O=c1ccn(C[C@@H](O)C(F)(F)F)c(=O)n1Cc1cc2nccc(-c3cc(Cl)cc4c3N([C@H]3CCNC3)CCC4)c2s1 [Example 65, 3-((7-(6-chloro-1-((S)-pyrrolidin-3-yl)-1,2,3,4-tetrahydroquinolin-8-yl)thieno[3,2-b]pyridin-2-yl)methyl)-1-((R)-3,3,3-trifluoro-2-hydroxypropyl)pyrimidine-2,4(1H,3H)-dione] |
| < 0.01 µM | COCCc1cnn(Cc2cc3nccc(-c4cc(Cl)cc5c4N([C@H]4CCNC4)CCC5)c3s2)c(=O)c1 [Example 66, (S)-2-((7-(6-chloro-1-(pyrrolidin-3-yl)-1,2,3,4-tetrahydroquinolin-8-yl)thieno[3,2-b]pyridin-2-yl)methyl)-5-(2-methoxyethyl)pyridazin-3(2H)-one] |
| < 0.01 µM | O=c1ccn(CCC(F)F)c(=O)n1Cc1cc2nccc(-c3cc(Cl)cc4c3N([C@H]3CCNC3)CCC4)c2s1 [Example 67, (S)-3-((7-(6-chloro-1-(pyrrolidin-3-yl)-1,2,3,4-tetrahydroquinolin-8-yl)thieno[3,2-b]pyridin-2-yl)methyl)-1-(3,3-difluoropropyl)pyrimidine-2,4(1H,3H)-dione] |
| < 0.01 µM | O=c1n(Cc2cc3nccc(-c4cc(Cl)cc5c4N([C@H]4CCNC4)CCC5)c3s2)nc2n1CCC2 [Example 68, (S)-2-((7-(6-chloro-1-(pyrrolidin-3-yl)-1,2,3,4-tetrahydroquinolin-8-yl)thieno[3,2-b]pyridin-2-yl)methyl)-6,7-dihydro-2H-pyrrolo[2,1-c][1,2,4]triazol-3(5H)-one] |
| < 0.01 µM | O=c1ccn(CC2(C(F)F)CC2)c(=O)n1Cc1cc2nccc(-c3cc(Cl)cc4c3N([C@H]3CCNC3)CCC4)c2s1 [Example 69, (S)-3-((7-(6-chloro-1-(pyrrolidin-3-yl)-1,2,3,4-tetrahydroquinolin-8-yl)thieno[3,2-b]pyridin-2-yl)methyl)-1-((1-(difluoromethyl)cyclopropyl)methyl)pyrimidine-2,4(1H,3H)-dione] |
| < 0.01 µM | N#CC1(Cn2ccc(=O)n(Cc3cc4nccc(-c5cc(Cl)cc6c5N([C@H]5CCNC5)CCC6)c4s3)c2=O)CC1 [Example 70, (S)-1-((3-((7-(6-chloro-1-(pyrrolidin-3-yl)-1,2,3,4-tetrahydroquinolin-8-yl)thieno[3,2-b]pyridin-2-yl)methyl)-2,4-dioxo-3,4-dihydropyrimidin-1(2H)-yl)methyl)cyclopropanecarbonitrile] |
| 0.101 to 1 µM | O=C1c2ccccc2CN1Cc1cc2nccc(-c3cc(Cl)cc4c3N([C@H]3CCNC3)CCC4)c2s1 [Example 71, (S)-2-((7-(6-chloro-1-(pyrrolidin-3-yl)-1,2,3,4-tetrahydroquinolin-8-yl)thieno[3,2-b]pyridin-2-yl)methyl)isoindolin-1-one] |
